This is an account of results in US9650423B2, “Long peptides of 22-45 amino acid residues that induce and/or enhance antigen specific immune responses” (priority 2000, dated 2017).

Values joined by “and” are separate entries in the source; they are usually repeats but may differ in a detail not shown here. Equal values may be shown once. Residues, ends and D or L forms follow the SMILES beside them. No end group written: not given here.

The target in one assay is HLA-DR4 (DRB*0401). Kind of assay: HLA-DR-peptide binding assay. On the set-up: species or system human. The settings on record: HPV16-E7 22-mer peptides; >70 indicates undetectable binding; read-out: Binding DR4, IC50.
The subject of the next assay is HLA-DR 1, 2, 3, 4 and 7. Kind of assay: HLA-DR-peptide binding assay, summary over the molecules tested. The arrangement: species or system human. The settings on record: E7 peptides tested on HLA-DR 1, 2, 3, 4 and 7. The protocol:
The analysis of peptide binding to purified DR molecules was performed using N-terminally fluorescence-labelled standard peptides.

Assay [1] relates to HPV16 E7-specific T-helper clones. Kind of assay: HPV16 E7-specific Th-clones: proliferation and IFNγ production. The settings on record: Th-clone from HLA-DR15, 4 and DQ6,7 positive PBMC raised against peptide E741-62. Format: cell-based, human. The protocol: Peptide-specific T-cell bulk cultures were generated as described previously (van der Burg et al., 1999) using either the E7 22-mer or E7 35-mer peptides. Specific proliferation was measured by incubation of 50,000 responders with an equal amount of irradiated (30Gy) APC (autologous PBMC unless indicated otherwise) and peptide or protein as indicated. E7-peptide and -protein-specific bulk T-cells were cloned by limiting dilution as described previously (van der Burg et al., 1999).
To determine specific excretion of cytokines, T-cell clones were stimulated by incubation of 50.000 T-cells with an equal amount of APC (30Gy) together with 10 μg/ml peptide, control peptide, E7 protein or control protein as indicated. After 24 hours of incubation, supernatant was harvested and replicate wells were pooled. Cytokine production was measured by Enzyme-Linked Immunosorbent Assay (ELISA) as described previously (van der Burg et al., 1999).

The next assay addresses HLA-DR7 (DRB1*0701) (Homo sapiens, UniProt P01903+P01911, A100R/A102G/A103Q/D57E/D86V/E43K/F76Y/K127E/L162R/M171V/P40G/Q125H/Q99D/R33Q/R42Y/R54Q/S133A/S66F/T210M/V115G/Y107V/Y59L/Y89S). The settings on record: read-out: Binding DR7, IC50.
The target of another assay is T1, HLA-DR1 (DRB*0101) (Homo sapiens, UniProt P01903+P01911, A100R/D57E/F55L/F60I/F76Y/I96L/L162R/M171V/P40L/Q125E/R42F/V115G/Y59C).
T1 construct: endogenous in cells; host or cells: LG2.1 B-lymphoblastic cell line, homozygous for HLA-DR
In words: biochemical. The settings on record: read-out: Binding DR1, IC50. Format: binding.

In the next assay the target is HLA-DR3 (DRB*0301). In words: HLA-DR-peptide binding assay. On the set-up: species or system human. The settings on record: HPV16-E7 22-mer peptides; >70 indicates undetectable binding; read-out: Binding DR3, IC50.
The target of a further assay is HLA-DR2 (DRB1*0201). In words: HLA-DR-peptide binding assay. On the set-up: species or system human. The settings on record: HPV16-E7 22-mer peptides; >70 indicates undetectable binding; read-out: Binding DR2, IC50.
The subject of assay [2] is PBMC of HLA-DR1 positive blood donors. In words: Proliferation of PBMC stimulated with long E6 peptides. The class given is cell-based, human. The settings on record: two HLA-DR1 positive donors, stimulated with pool of two 35-mer peptides covering E6 109-158. The protocol:
Furthermore, PBMC of two different HLA-DR1 positive blood donors were stimulated with a pool of two long 35-mer peptides that together covered E6 109-158. […] A CD4+ T-helper clone derived from one of these bulks was analysed further and specifically proliferated and produced IFNγ when stimulated with HPV16 E6 peptide and HPV16 E6 protein in a HLA-DR1 restricted manner (FIG. 16).
FIGS. 16a-16d depict a peptide E6127-158 induced T-cell response that recognizes naturally processed Ag. PBMC from a healthy HLA-DR1 positive blood donor were stimulated four times with peptide E6127-158. FIGS. 16a and 16b are entitled E6 127-158 stimulated HLA-DR1+PBMC. Proliferation of the bulk T-cell culture (top, left, 16a) and IFNγ production (top, right, 16b) is depicted. FIGS. 16c and 16d are entitled E6 127-158 stimulated PBMC derived clone 9 HLA-DR restriction in proliferation and IFNγ production. The specific proliferation (bottom, left, 16c) and IFNγ production (bottom, right, 16d) of the T-helper clone, derived from the bulk T-cell culture, and HLA-restriction when stimulated with E6127-158, or E6 protein is depicted. (See, also, FIGS. 1a-1d and associated descriptions).

Assay [3] relates to E7 49-57-specific CD8+ T cells. Kind of assay: Vaccination, H-2Db E7 49-57 tetramer staining of spleen cultures. Format: in vivo, C57BL/6 mice. The settings on record: MHC class II−/− mice.
Assay [4] deals with E7 49-57-specific CD8+ T cells. The assay is described as above. The class given is in vivo, C57BL/6 mice. The settings on record: B6 mice. How it is done: (§1) Immunization strategies. C57BL/6 mice were injected subcutaneously with either 50 μg E7^49-57 peptide or 150 μg E7^43-77 35-mer dissolved in PBS in order to achieve similar molar levels of the E7^49-57 CTL epitope in both cases. Combinations with various adjuvantia were tested. In the case of IFA and Montanide, the dissolved peptides were emulsified in 50% of these respective substances. ODN-CpG (50 μg/mouse), MPL (10 μg/mouse) and GM-CSF (4 μg/mouse) were all dissolved in PBS and mixed with the peptides before subcutaneous vaccination. The total injected volume was 200 μl/mouse.
T cell cultures. T cells were obtained from immunized mice by culturing spleen cells (5×10^6 cells/well of a 24-wells plate) in complete medium in the presence of 0.5×10^6 E7^49-57-expressing cells (tumor cell line 13.2) or, when indicated, in the presence of D1 cells.
Tetramer staining. Spleen cultures, stimulated with tumor cell line 13.2 for seven days, were transferred at an amount of 40×10^4 per well to 96-well V-bottom microtiter plates and washed twice with PBS/BSA 0.5%. Subsequently, PE-labelled E749-57-containing tetramer was added. After 30 minutes of incubation at room temperature, cells were washed twice with PBS/BSA 0.5% and incubated with FITC-labelled anti CD8b Ab for 30 minutes. Subsequently cells were washed twice in PBS/BSA 0.5%, suspended in PBS/BSA 0.5% containing Propidium Iodide (PI) (0.5) μg/ml) and transferred to tubes. Cell samples were analysed in a FACSCalibur flow cytometer (Becton Dickinson, San Jose, Calif., USA) using CellQuest software. A total of 20×10^4 events was analysed for fluorescence intensity. Debris was gated out using the PI staining and subsequently the CD8^+ fraction was gated. […] As a positive control the HPV16 E7 specific CTL clone 9.5 was used.

For assay [5], the system named is E7 43-77-specific IFNγ-producing CD4+ T cells. Kind of assay: Vaccination, intracellular IFN-γ staining of CD4+ T cells. The class given is in vivo, C57BL/6 mice. The settings on record: B6 mice, vaccinated once, IFA. How it is done:
as §1
Before use, the D1 cells were incubated for 16 hours with the E7^43-77 35-mer and subsequently activated by adding LPS (10 μg/ml) for 6 hours and then thoroughly washed. Complete medium consists of Iscove's Modified Dulbecco's Medium (IMDM; BioWhittaker, Walkersville, Md., USA) supplemented with 8% FCS, 100 IU/ml penicillin, 2 mM glutamine (ICN, Aurora, Ohio, USA) and 30 μM 2-ME (Merck, Darmstadt, Germany). Cultures were maintained at 37° C. in humidified air containing 5% CO2. No exogenous IL-2 was added. […]
Intracellular cytokine staining. […] Subsequently, the percentage of CD8^+ and CD4^+ IFN-γ producing T cells was measured as described before (van der Burg et al., 2001).

A further assay has as its system Ad5E1-expressing tumors. The settings on record: Toes et al., 1996a, 1996b; cited from earlier work.
Assay [6] relates to PBMC or cord blood cells (CBC). Format: cell-based, human.

As for `CC[C@H](C)[C@H](NC(=O)[C@H](CC(N)=O)NC(=O)[C@H](Cc1ccc(O)cc1)NC(=O)[C@H](Cc1c[nH]cn1)NC(=O)[C@H](C)NC(=O)[C@H](CCCNC(=N)N)NC(=O)[C@H](CC(=O)O)NC(=O)[C@@H]1CCCN1C(=O)[C@H](CCC(=O)O)NC(=O)[C@H](C)NC(=O)[C@H](CCC(N)=O)NC(=O)CNC(=O)[C@H](C)NC(=O)[C@@H]1CCCN1)C(=O)N[C@H](C(=O)N[C@H](C(=O)N[C@@H](Cc1ccccc1)C(=O)N[C@@H](CS)C(=O)N[C@@H](CS)C(=O)N[C@@H](CCCCN)C(=O)N[C@@H](CS)C(=O)N[C@@H](CC(=O)O)C(=O)O)[C@@H](C)O)C(C)C` [E7 41-62] (H-PAGQAEPDRAHYNIVTFCCKCD-OH; N-terminus and C-terminus assumed), the concentration for half-maximal inhibition (IC50) at HLA-DR4 (DRB*0401) is 38 µM; at HLA-DR7 (DRB1*0701), above 70 µM; at HLA-DR1 (DRB*0101), 7.4 µM; at HLA-DR3 (DRB*0301), 55 µM; on HLA-DR2 (DRB1*0201), 50 µM. The HLA-DR molecules bound result with HLA-DR 1, 2, 3, 4 and 7 is “bound to DR1, 2, 3 and 4”. Further, the “response of HLA-DR15 restricted Th-clone to pulsed APC” value in assay [1] is given as “specifically respond”.
Consider “E6 121-142: 22-mer peptide, amino acids 121-142 of HPV16 E6 protein (EKQRHLDKKQRFHNIRGRWTGR; UniProt P03126 121-142, looked up, fragment)”, for which the “specific proliferation of PBMC” value in [2] is listed as “proliferated specifically”.
The same measure, in the same setting: the entry for “E6 127-158: peptide, amino acids 127-158 of HPV16 E6 protein (DKKQRFHNIRGRWTGRCMSCCRSSRTRRETQL)” is “proliferated specifically”; for “E6 protein: recombinant HPV16-E6 protein produced in E. coli (DKKQRFHNIRGRWTGRCMSCCRSSRTRRETQL) [reference compound]” it is “proliferated specifically”.
Take “GQAEPDRAHYNIVTFCCKCDSTLRLCVQSTHVDIR [E7 43-77]”: in assay [3] (one vaccination, ODN-CpG), the CTL responses entry is given as “robust CTL responses”. The “number of E7 49-57-specific CTL” value in assay [3] (prime-boost, IFA) is “far lower than found in B6 mice after two vaccinations”. Also, the “E7 49-57-specific CD8+ T cell response” value in [4] (prime-boost, IFA) is “vigorous”. In addition, in assay [4] (primed and boosted 50 days later, IFA), the “mice with E7 49-57-specific CTL response” value is listed as 9/11. Also, the “E7 49-57-specific CD8+ T cells, mean” value in [4] (primed and boosted, IFA) was determined as 19%. Moreover, the “E7 49-57-specific CD8+ T cells, range” value in [4] (primed and boosted, IFA) is recorded as 5-40%. Moreover, the “E7 49-57-specific CTL response” value in assay [4] (vaccinated once, GM-CSF and IFA) is “moderate”; in [4] (vaccinated once, Montanide adjuvant) it was “no responses were observed”; in [4] (vaccinated once, combined with anti-CD40 antibody or GM-CSF), “no or minimal CTL responses”. Moreover, the “CD8+ T cells stained with tetramers” value in assay [4] (vaccinated once, IFA, responders) is recorded as around 5%. Further, the “mice responding to the vaccine (tetramer staining)” value in [4] (vaccinated once, IFA, spleens day 10) is recorded as 3 out of 9. Also, in assay [4] (vaccinated once, MPL or ODN-CpG), the “mice with E7 49-57-specific CTL responses” value is “in all mice”. Also, in assay [4] (vaccinated once, MPL or ODN-CpG, majority of animals), the “level of the CTL response” value is reported as “up to 40 % of CD8+ T cells”. Besides, the “E7 43-77-specific IFNγ-producing CD4+ T cells” value in assay [5] was at least 5%. Also, in assay [1], the “response of HLA-DR15 restricted Th-clone to pulsed APC” value is “specifically respond”.
Take “SGPSNTPPEI (minimal E1A-derived CTL epitope)”: in the assay on Ad5E1-expressing tumors, the “effect of peptide vaccination on outgrowth of Ad5E1-expressing tumors” value was “enhances rather than inhibits the growth”.
As for STHVDIRTLEDLLMGTLGIVCP [E7 71-92], the 50% inhibitory concentration (IC50) on HLA-DR4 (DRB*0401) was above 70 µM; at HLA-DR7 (DRB1*0701), above 70 µM; at HLA-DR1 (DRB*0101), 12 µM; on HLA-DR3 (DRB*0301) it was above 70 µM; on HLA-DR2 (DRB1*0201) it was 2 µM. In assay [6], the “number of antigen-specific cells (IFNγ ELISPOT)” value was 2 per 100,000 cord blood cells or PBMC and <1 per 100,000 cord blood cells or PBMC.
